Results reported in patent US6509377B1, “Use of a 2-hydroxy-4-trifluoromethylbenzoic acid derivatives as inhibitors of the activation of the nuclear transcription factor NF-κB” (J. Uriach & Cia, S.A., priority 1999, dated 2003).

How the values were obtained:
TNF-α = TNF-α production induced by LPS in human PBMC (enzymatic immunoassay); format: cell-based; details: LPS 10 μg/ml, 19 hours
Protocol: Mononuclear cells (PBMC) were obtained from blood of healthy donors from the Hospital de Sant Pau (Barcelona) following the procedure described in example 3. Cells were diluted at a concentration of 2 million/ml in RPMI medium supplemented with 10% fetal calf serum and were incubated (37° C., 5% CO2) with triflusal, HTB or vehicle (DMSO) in the presence of 10 μg/ml E.coli lipopolysaccharide (LPS, 026:B6 serotype; Sigma), for 19 hours. The cell suspension was then centrifuged at 2,000 g for 10 minutes at 4° C., and the resulting supernatant was stored at −70° C. for later analysis. The cytokine content was determined by enzymatic immunoassay, after 1/100 dilution of the samples.

NF-κB = test: Activation of NF-κB induced by TNF-α in HUVEC (EMSA); format: cell-based, human; details: 2 and 4 mM, TNF-α 100 U/ml, 90 minutes
Protocol: Human umbilical vein endothelial cells (HUVEC) were obtained by the procedure of Dejana et al. (J. Cell Biol 1987, 104(5), 1403-1411) by treatment of the umbilical vein with. 0.2% collagenase P from C. histolyticum (Boehnnger Manheim GmbH, Manheim, Germany) for 20 minutes at 37° C. Next, cells were cultured in M199 medium (Flow Lab, Herts, U.K.) containing 100 U/ml penicillin, 100 μg/ml streptomycin, 2.5 μg/ml amphotercin B and 20% fetal calf serum. Primary cultures were plated in 25 cm^2 plastic flasks. After 24 hours cells were washed to remove those cells which had not adhered to the flask surface. Then, the same medium containing 10% fetal calf serum, 50 μg/ml endothelial cell growth supplement factor and 100 μg/ml heparn was added. After culturing for 5-7 days, cells reached confluence and were detached from the flask surface with 0.05% trypsin and 0.02% EDTA (Flow Lab). The reaction was inhibited by the addition of fetal calf serum, and then cells were washed and plated again in culture medium. Cells were grown to confluence in gelatin-coated flasks. Cells used for the experiments were from passages 2-7.
In this experiment, HUVEC cells were preincubated with Triflusal and HTB, at concentrations in both cases of 2 and 4 mM. Then these cells were stimulated with 100 U/ml TNF-α (Genzyme Diagnostics, Cambridge, Mass. USA) for 90 minutes. […]

COX-2 = test: PGE2 production induced by LPS in human PBMC (ELISA); format: cell-based; details: LPS 10 μg/ml, 19 hours, 0.1-5 mM
Protocol: Mononuclear cells (PBMC) were obtained from blood of healthy donors from the Hospital de Sant Pau, (Barcelona) who had not taken any antiinflammatory drug during a period of not less than 2 weeks before blood extraction. Starting from a volume of about 80 ml of heparinized human blood (10 U/ml), this was diluted (1:1) with PBS (pH 7.4; Dulbecco) without calcium, magnesium nor sodium bicarbonate. 15 ml of Ficoll solution (d=1.077 at 20° C.; Biochrom KG) were placed in 50-ml Falcon tubes. To this solution a volume of about 25 ml per tube of the blood previously diluted with PBS was carefully added and the tubes were then centrifuged at 1,200 g for 20 minutes. Mononudear cells concentrate on a whitish interphase between the plasma and the Ficoll solution. This interphase was collected with a Pasteur pipette and was diluted 1:1 with PBS. It was then centrifuged at 300 g, 10 min. The resulting pellet was resuspended in 50 ml PBS and was again centrifuged at 200 g for 10 min in order to remove platelet contamination. Finally, the resulting pellet was resuspended in 20 ml RPMI-1640 culture medium (GibcoBRL) supplemented with 10% fetal calf serum. […]
Finally, the supernatants from each experiment that had been stored at −70° C. were defrozen and the amount of PGE2 in solution was determined using specific ELISA kits (Amershan-Biotrak RPN22).

Row | Structure (SMILES) | inhibition of LPS-induced TNF-α production (TNF-α; 0.3 mM) | inhibition of LPS-induced TNF-α production (TNF-α; 1 mM) | inhibition of the activation of NF-κB induced by TNF-α (NF-κB) | inhibition of PGE2 production (COX-2)
1 | O=C(O)c1ccc(C(F)(F)F)cc1O [HTB, 2-hydroxy-4-trifluoromethylbenzoic acid] | almost completely inhibit | almost completely inhibit | concentration-dependently inhibit | concentration-dependently inhibit
2 | CC(=O)Oc1cc(C(F)(F)F)ccc1C(=O)O [triflusal, 2-Acetyloxy-4-trifluoromethylbenzoic acid, reference compound] | almost completely inhibit | almost completely inhibit | concentration-dependently inhibit | concentration-dependently inhibit
